In brackets after ≈: the same amount, converted by molar mass.
Assays:
Kinetic solubility = conditions: kinetic from dmso stock, Solubility, kinetic solubility; n = 1 or average of n = 2-3
Protocol: Kinetic solubility was measured as described in Comput Aided Mol Des 2015, 29, 795.

[1] = Metabolic stability in rat hepatocytes (rHep); conditions: n = 1 or geometric mean of n = 2-3
[2] = Metabolic stability in human liver microsomes (HLM); conditions: human, HLM CLint, n = 1 or average of n = 2-3
Protocol: Metabolic stability in HLM was measured as described in J Comput Aided Mol Des 2015, 29, 795.

Caco-2 cell permeability = conditions: human
Protocol: Caco-2 cell permeability was measured as described in Mol Pharm 2017, 14, 1601.

hFAP (M39-A757) = hFAP (M39-A757) (Homo sapiens (Human), UniProt Q12884); assay: hFAP binding assay (surface plasmon resonance); conditions: SPR, 20° C.; for hFAP Binding assay k(off) / hFAP Binding assay k(on): single cycle kinetics; for Kd: n = 1 or geometric mean n = 2-4
Sequence of hFAP (M39-A757) (Q12884 39-757): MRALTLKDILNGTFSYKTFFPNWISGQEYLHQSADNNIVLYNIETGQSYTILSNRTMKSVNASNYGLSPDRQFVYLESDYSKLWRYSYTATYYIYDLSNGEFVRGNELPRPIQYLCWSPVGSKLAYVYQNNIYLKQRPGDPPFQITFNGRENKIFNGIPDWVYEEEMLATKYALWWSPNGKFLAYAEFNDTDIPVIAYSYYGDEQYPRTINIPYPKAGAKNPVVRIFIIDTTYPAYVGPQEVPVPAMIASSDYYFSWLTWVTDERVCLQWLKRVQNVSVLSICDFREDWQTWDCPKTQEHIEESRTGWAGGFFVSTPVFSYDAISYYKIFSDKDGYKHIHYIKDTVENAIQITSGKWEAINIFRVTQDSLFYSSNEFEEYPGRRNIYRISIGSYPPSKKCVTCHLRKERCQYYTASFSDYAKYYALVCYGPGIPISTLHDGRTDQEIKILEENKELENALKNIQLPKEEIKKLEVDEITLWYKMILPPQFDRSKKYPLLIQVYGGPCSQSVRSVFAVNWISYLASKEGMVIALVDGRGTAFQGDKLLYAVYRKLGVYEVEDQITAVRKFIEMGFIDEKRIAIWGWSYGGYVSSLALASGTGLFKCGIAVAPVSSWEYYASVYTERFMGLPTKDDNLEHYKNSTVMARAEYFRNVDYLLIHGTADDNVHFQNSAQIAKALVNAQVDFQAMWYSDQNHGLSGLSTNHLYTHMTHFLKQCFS

[3] = target: Prolyl endopeptidase, Prolyl Oligopeptidase (hPREP) (Homo sapiens (Human), UniProt P48147); assay: hPrep inhibition assay; assay type: biochemical; conditions: hPREP 0.6 nM, Z-Gly-Pro-amino-methylcoumarin 50 μM; read-out: PREP IC50
Sequence of Prolyl endopeptidase, Prolyl Oligopeptidase (hPREP) (P48147 whole entry): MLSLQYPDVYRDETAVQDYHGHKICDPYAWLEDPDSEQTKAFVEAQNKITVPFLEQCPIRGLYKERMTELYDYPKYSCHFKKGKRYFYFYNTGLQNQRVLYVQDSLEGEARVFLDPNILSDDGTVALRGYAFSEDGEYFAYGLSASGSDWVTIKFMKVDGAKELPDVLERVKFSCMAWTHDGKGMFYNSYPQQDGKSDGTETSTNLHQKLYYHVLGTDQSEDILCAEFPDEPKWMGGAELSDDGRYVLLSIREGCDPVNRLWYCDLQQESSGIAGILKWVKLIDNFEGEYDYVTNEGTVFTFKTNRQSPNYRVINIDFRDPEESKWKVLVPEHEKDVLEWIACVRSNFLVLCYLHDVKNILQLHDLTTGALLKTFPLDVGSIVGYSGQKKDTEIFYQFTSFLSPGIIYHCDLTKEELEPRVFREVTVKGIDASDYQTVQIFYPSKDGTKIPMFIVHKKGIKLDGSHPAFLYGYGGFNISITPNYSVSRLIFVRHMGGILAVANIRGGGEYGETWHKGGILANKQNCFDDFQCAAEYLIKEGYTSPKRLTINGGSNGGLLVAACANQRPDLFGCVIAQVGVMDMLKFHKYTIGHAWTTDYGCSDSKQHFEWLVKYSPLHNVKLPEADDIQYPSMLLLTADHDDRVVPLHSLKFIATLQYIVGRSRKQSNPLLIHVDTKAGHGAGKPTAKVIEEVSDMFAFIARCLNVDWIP
How it was run: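 Recombinant human PREP at 0.6 nM final with Z-Gly-Pro-AMC substrate at 50 μM final in Tris-HCl pH 7.5, NaCl, Triton X-100, glutathione; 15 min rt preincubation then 20 min rt reaction in dark. AMC fluorescence (ex 340/em 460 nm); IC50 from one-site dose-response fit of % inhibition.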

[4] = target: human Fibroblast activation protein alpha (hFAP) (Homo sapiens (Human), UniProt Q12884); assay: hFAP inhibition assay (tight binders); assay type: biochemical; conditions: Ala-Pro-AMC 20 μM, n = 1 or geometric mean n = 2-6; further: hFAP 2.4 pM
Sequence of human Fibroblast activation protein alpha (hFAP) (Q12884 38-760): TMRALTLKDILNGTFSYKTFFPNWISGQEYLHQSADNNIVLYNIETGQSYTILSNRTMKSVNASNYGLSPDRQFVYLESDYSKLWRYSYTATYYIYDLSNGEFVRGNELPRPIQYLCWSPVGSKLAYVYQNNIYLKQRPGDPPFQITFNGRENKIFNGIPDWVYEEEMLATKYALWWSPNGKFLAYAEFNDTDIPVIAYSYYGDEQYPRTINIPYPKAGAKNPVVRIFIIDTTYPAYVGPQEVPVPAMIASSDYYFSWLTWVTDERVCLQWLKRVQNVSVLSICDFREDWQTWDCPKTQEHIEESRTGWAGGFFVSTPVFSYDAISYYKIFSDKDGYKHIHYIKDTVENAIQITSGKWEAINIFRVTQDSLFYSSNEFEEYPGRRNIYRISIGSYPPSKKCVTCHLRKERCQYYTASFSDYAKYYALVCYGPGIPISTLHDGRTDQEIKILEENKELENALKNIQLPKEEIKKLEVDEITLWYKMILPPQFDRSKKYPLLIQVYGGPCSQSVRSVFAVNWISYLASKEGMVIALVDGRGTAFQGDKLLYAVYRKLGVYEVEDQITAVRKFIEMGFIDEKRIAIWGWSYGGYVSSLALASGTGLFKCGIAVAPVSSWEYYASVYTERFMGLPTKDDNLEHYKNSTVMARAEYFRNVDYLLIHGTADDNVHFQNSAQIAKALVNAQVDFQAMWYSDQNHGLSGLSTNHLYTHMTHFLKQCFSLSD
Protocol: The plates were read on a PHERAstar® reader with excitation 340 nm and emission 460 nm. Data were analyzed in Genedata Screener®. IC50 values were determined by plotting % inhibition versus log compound concentration and using a one site dose response model.

solubility (Kinetic solubility) [µM] | rHep CLint [1] [μL/min/1E6] | microsomal CLint [2] [µL/min/mg] | Papp A→B (Caco-2 cell permeability) [×10⁻⁶ cm/s] | Papp B→A (Caco-2 cell permeability) [×10⁻⁶ cm/s] | efflux ratio (Caco-2 cell permeability) | hFAP Binding assay k(off) (hFAP (M39-A757)) [s⁻¹] | hFAP Binding assay k(on) (hFAP (M39-A757)) [M⁻¹ s⁻¹] | Kd (hFAP (M39-A757)) [nM] | IC50 [3] [nM] | IC50 [4] [nM] | Papp (Caco-2 cell permeability) [×10⁻⁶ cm/s] | Structure (SMILES)
300 (≈ 137 µg/mL) | 2.6 | < 3 | 0.33 | 17 | 50 | 0.000080 | 1800000 | 0.047 | 1900 | 0.091 |  | COC[C@@H]1CN(c2ccc3nccc(C(=O)NCC(=O)N4CSC[C@H]4C#N)c3c2)CCO1 [Example 93, N-(2-((R)-4-Cyanothiazolidin-3-yl)-2-oxoethyl)-6-((S)-2-(methoxymethyl)-morpholino)quinoline-4-carboxamide]
310 (≈ 138 µg/mL) | 6.8 | 23 | 4.4 | 29 | 6.5 | 0.000023 | 1700000 | 0.013 | 500 | 0.11 |  | CC1(C(F)F)CN(c2ccc3nccc(C(=O)NCC(=O)N4CSC[C@H]4C#N)c3c2)C1 [Example 135, (R)—N-(2-(4-Cyanothiazolidin-3-yl)-2-oxoethyl)-6-(3-(difluoromethyl)-3-methylazetidin-1-yl)quinoline-4-carboxamide]
890 (≈ 402 µg/mL) | 11 | 43 | 0.3 | 13 | 45 | 0.000046 | 490000 | 0.11 | 2100 | 0.12 |  | CC1(C)CCCN(c2ccc3nccc(C(=O)NCC(=O)N4CSC[C@H]4C#N)c3c2)C1=O [Example 15, (R)—N-(2-(4-Cyanothiazolidin-3-yl)-2-oxoethyl)-6-(3,3-dimethyl-2-oxopiperidin-1-yl)quinoline-4-carboxamide]
950 (≈ 446 µg/mL) | 19 | 32 | 0.52 | 23 | 45 | 0.000076 | 690000 | 0.11 | 890 | 0.23 |  | COC[C@@H]1[C@@H](C)OCCN1c1ccc2nccc(C(=O)NCC(=O)N3CSC[C@H]3C#N)c2c1 [Example 97, N-(2-((R)-4-Cyanothiazolidin-3-yl)-2-oxoethyl)-6-((2R,3R)-3-(methoxymethyl)-2-methylmorpholino)quinoline-4-carboxamide]
55 (≈ 24.6 µg/mL) | 14 | 50 | 1.6 | 28 | 18 | 0.000094 | 1200000 | 0.079 | 1100 | 0.058 |  | N#C[C@@H]1CSCN1C(=O)CNC(=O)c1ccnc2ccc(N3CCOC(F)(F)C3)cc12 [Example 4, (R)—N-(2-(4-Cyanothiazolidin-3-yl)-2-oxoethyl)-6-(2,2-difluoromorpholino)-quinoline-4-carboxamide]
140 (≈ 59.3 µg/mL) | <1 | 7.7 |  |  |  | 0.000070 | 1600000 | 0.043 | 550 | 0.044 | 5.2 | C[C@@H]1CCN(c2ccc3nccc(C(=O)NCC(=O)N4CSC[C@H]4C#N)c3c2)C1=O (single isomer, unassigned) [Example 202, N-(2-((R)-4-Cyanothiazolidin-3-yl)-2-oxoethyl)-6-((R*)-3-methyl-2-oxopyrrolidin-1-yl)quinoline-4-carboxamide]
